# Results published in paper PMC13013135, “[^99mTc]Tc-PSMA-HSG for PSMA-targeted Hybrid Surgical Guidance: a new addition to the PSMA-I&S/I&T family” (European Journal of Nuclear Medicine and Molecular Imaging, 2025).
# Where “and” joins values, the source holds several entries; their conditions need not be identical. Identical values can stand only once. Like-named read-outs stand apart in the source and are kept apart here.
# Target: PSMA (Homo sapiens, UniProt Q04609)
# Type: in vivo
# Design: Five patients with a diagnosis of initial (n = 4) or biochemical recurrence of (n = 1) histologically proven prostate cancer; from tissue; host or cells: prostate cancer patients: primary tumour, lymph nodes, resected tissue sections
# Excerpt: For all patients, radioguided surgery had been recommended by the local multidisciplinary tumor board. […] Attenuation maps were generated on the basis of low-dose CT. For a detailed protocol of imaging parameters and the dosimetry protocol please refer to the Supplementary Material. […] A scatter window ranging from 114 to 126 keV was additionally acquired for planar and SPECT imaging. For SPECT, the imaging field of view was from neck to upper thighs. At each bed position, 60 views were acquired, with a duration of 8 s each. Subsequently, images were reconstructed using an ordered subset expectation maximisation (OSEM) algorithm (2 iterations and 10 subsets) with a Butterworth filter (fc = 0.48, n = 10). Scatter and attenuation correction was applied. For whole-body planar imaging, a scan speed of 30 cm/min was employed until 60 min post-injection, after which the acquisition speed was moderated to 12 cm/min for any further data collection.
# [1] = exploratory cohort, five patients
# [2] = subjects with newly diagnosed PCa
# PSMA, sequence (Q04609 whole entry): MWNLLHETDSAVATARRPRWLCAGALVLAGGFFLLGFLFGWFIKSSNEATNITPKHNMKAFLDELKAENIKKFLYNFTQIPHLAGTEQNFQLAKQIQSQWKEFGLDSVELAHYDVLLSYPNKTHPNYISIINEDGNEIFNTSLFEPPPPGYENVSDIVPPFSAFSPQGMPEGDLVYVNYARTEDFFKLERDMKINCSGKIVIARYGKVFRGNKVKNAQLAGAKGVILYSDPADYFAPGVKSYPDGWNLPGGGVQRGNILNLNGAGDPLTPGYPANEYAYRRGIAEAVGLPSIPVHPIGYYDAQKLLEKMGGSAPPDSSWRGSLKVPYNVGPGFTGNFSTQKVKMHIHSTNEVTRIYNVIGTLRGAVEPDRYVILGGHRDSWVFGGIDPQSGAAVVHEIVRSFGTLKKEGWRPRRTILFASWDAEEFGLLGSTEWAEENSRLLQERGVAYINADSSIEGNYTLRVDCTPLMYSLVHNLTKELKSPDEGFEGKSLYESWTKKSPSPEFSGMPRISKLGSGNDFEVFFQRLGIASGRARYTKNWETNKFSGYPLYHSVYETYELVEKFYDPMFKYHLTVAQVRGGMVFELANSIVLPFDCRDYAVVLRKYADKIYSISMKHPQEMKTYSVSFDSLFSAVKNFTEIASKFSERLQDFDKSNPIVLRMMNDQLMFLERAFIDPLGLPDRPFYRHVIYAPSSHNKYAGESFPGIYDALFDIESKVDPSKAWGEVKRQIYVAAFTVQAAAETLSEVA
structure (smiles),measurement,setting,value
"C[N+]1=C(/C=C/C=C/C=C2/N(CCCCCC(=O)NCCCC[C@@H](NC(=O)[C@@H](CO)NC(=O)[C@@H](CO)NC(=O)[C@@H](CO)NC(=O)CS)C(=O)N[C@H](Cc3ccc(O)cc3)C(=O)N[C@H](Cc3ccc4ccccc4c3)C(=O)N[C@H](CCCCNC(=O)CCCCCCC(=O)NCCCC[C@H](NC(=O)N[C@@H](CCC(=O)O)C(=O)O)C(=O)O)C(=O)O)c3ccc(S(=O)(=O)[O-])cc3C2(C)C)C(C)(C)c2cc(S(=O)(=O)O)ccc21 [[^99mTc]Tc-PSMA-HSG, metal not drawn]",scintigraphy findings,"Patient #1, 53 µg",Two positive LN in the right and left external iliac region
same,scintigraphy findings,"Patient #2, 53 µg",Moderate tracer uptake of the primary No positive LN
same,scintigraphy findings,"Patient #3, 53 µg",Moderate tracer uptake of the primary No positive LN
same,scintigraphy findings,"Patient #4, 350 µg",No discernible tracer uptake of the primary No discernible tracer uptake in the right iliac LN
same,scintigraphy findings,"Patient #5, 250 µg",Moderate tracer uptake of the primary No positive LN
same,negative predictive value (NPV) of SPECT/CT,[1],94%
same,positive predictive value (PPV) of SPECT/CT,[1],100%
same,sensitivity of SPECT/CT,[1],33%
same,specificity of SPECT/CT,[1],100%
same,"clearance in patients, visual image analysis","human, in vivo",swift activity clearance from blood/background via rapid renal excretion
same,intestinal accumulation in patients,"human, in vivo",Virtually no intestinal accumulation
same,PET-suspicious lymph nodes positive in scintigraphy,[2],2/10
same,primary tumor delineated / visualized,[2],3 out of 4 and 3/4
